Test results: a melting point compilation (Tetko et al.; mined from patent text by program, amines drawn as free bases though some values may be those of a salt)

Work on `CC(=O)c1cccc(Oc2ncccc2C(=O)NCc2ccc([C@H](C)O)cc2)c1` yielded a melting point of 102 to 104 °C.
With `Cn1c(CC(=O)O)c(C(=O)O)c(Br)c1C(=O)c1ccc(Cl)cc1` the melting point was 261 to 263 °C.
`Cc1cccc(-c2[nH]c(C(C)C)nc2-c2cccc(-c3ccc(C(N)=O)cn3)c2)n1` showed a melting point of 138 to 144 °C.
In the case of `Nc1cc(-c2ccncc2)n[nH]c1=O`, the melting point is reported as over 300 °C.
`O=[N+]([O-])c1ccc(N2CCN(CCO)CC2)cc1` showed a melting point of 98 to 99 °C.
For `CO/C=C(/C(=O)OC)c1ccccc1COc1cccc(Cl)n1`, the melting point was 91 to 92 °C.
In the case of `Cc1cc2c(cc1N)C(C)(C)CCC2(C)C`, the melting point is reported as 94 to 95 °C.
For `CNC(=O)C1(Cl)CC1(Cl)Cl` (stereo not given), the melting point was 71 to 72 °C.
Work on `Cc1c(C(=O)O)nc2c(cc(C)c3nc(C(=O)O)c(C)c(O)c32)c1O` yielded a melting point of 205 to 206 °C.
Work on `Cc1ccc(Nc2nc(=O)cc(N)n2-c2ccccc2)cc1` yielded a melting point of 207 to 210 °C.
With `Brc1ccc2c(c1)N=C(N1CCN(c3ccccc3)CC1)c1cccc3c1N2CC3` the melting point was 171 to 173 °C.
Compound `Cc1ncoc1C(C)(N)c1ccoc1` (stereo not given) has a melting point of 82.5 to 83.5 °C.
For `CS(=O)(=O)c1ccc2ncn(/C=C/C(=O)O)c(=O)c2c1`, the melting point was 284 to 290 °C.
In the case of `CSC(=NC(=O)OC(C)(C)C)NC(=O)OC(C)(C)C`, the melting point is reported as 123 to 124 °C.
Work on `CS(=O)(=O)c1ccc(CCN2CC=C(c3c[nH]c(-c4ccc(F)cc4)c3-c3ccncc3)CC2)cc1` yielded a melting point of 207 to 209 °C.
Work on `CC(=O)ON1C(C)(C)CC(OC(=O)NCCCCCCNC(=O)OC2CC(C)(C)N(OC(C)=O)C(C)(C)C2)CC1(C)C` yielded a melting point of 158 to 163 °C.
Compound `COCOc1cc(C=CC(=O)c2c(OC)cc(OC)c(CC=C(C)C)c2O)ccc1OC` has a melting point of 116 to 117 °C.
`C=CCNc1nnc(-c2ccc(F)c(F)c2Nc2ccc(CC)cc2F)o1` showed a melting point of 120 to 123 °C.
Compound `COc1cc(C(=O)N2CCC(CCN3CCC(C(=O)c4nc5ccccc5n4Cc4ccccn4)CC3)(c3ccccc3)C2)cc(OC)c1OC` (stereo not given) has a melting point of 84 to 89 °C.
Compound `COc1ccc(Cn2ncc3nc(O)nc(O)c32)cc1` has a melting point of 288 to 292 °C.
In the case of `Cc1ccc(Nc2ccnc(-n3nc(C)cc3C)n2)cc1`, the melting point is reported as 52 to 55.6 °C.
Work on `CCCOc1ccc(S(=O)(=O)Nc2ccc3[nH]ncc3c2)cc1-c1nc2cc(Cl)c([N+](=O)[O-])cc2c(=O)[nH]1` yielded a melting point of 261 to 263 °C.
`O=C(NC1CCCC1)n1cc(F)c(=O)[nH]c1=O` showed a melting point of 137 °C.
Compound `COc1c(S(=O)(=O)N2CCC[C@H]2C(=O)O)ccc(Cl)c1COc1cccc2c(C)cc(C)nc12` has a melting point of 134 to 138 °C.
For `CC[C@H](C)[C@H](OCc1ccccc1)[C@H]1[C@H]([N+](=O)[O-])[C@H](C2CC2)N[C@@H]1C(=O)O`, the melting point was 159 to 161 °C.
`COc1cccc(C=C2c3ccccc3CCc3ccccc32)c1` showed a melting point of 83 °C.
`CNC(=O)c1cnc(-c2ccccc2)c(-c2ccc(=O)n(C(C)C)n2)c1` gave a melting point of 212 to 213 °C.
`N#CCc1c(C(N)=O)ncn1C1CCCCO1` (stereo not given) showed a melting point of 198 to 199 °C.
Compound `CC(C)(C)NC(=O)[C@@H]1C[C@H](O)CN1C(=O)OCc1ccccc1` has a melting point of 129 to 130 °C.
In the case of `COc1ccc(N2CCN(c3ccc(NC(=O)NN)nc3)CC2)cc1`, the melting point is reported as 260 to 263 °C.
Compound `CCOC(=O)c1cc(-c2ccc(OC)cc2)nn(C(C)C)c1=O` has a melting point of 141 °C.
Work on `[N-]=[N+]=NCc1nc2ccccc2n1Cc1ccc(Cl)c(Cl)c1` yielded a melting point of 78 to 80 °C.
`CCOC(=O)c1cc2ccccc2nc1C` gave a melting point of 70 to 72 °C.
`NN(CCO)c1ccc(-c2ccc(Cl)cc2)nn1` gave a melting point of 172 to 174 °C.
Work on `COc1ccccc1C(=O)c1cccnn1` yielded a melting point of 125 to 126 °C.
For `CC(C)(C)OC(=O)NC1CCCCCC=CC2CC2(C(=O)NS(=O)(=O)C2CC2)NC(=O)C2CC(OC(=O)c3ccc(-c4ccccc4)cc3)CN2C1=O` (stereo not given), the melting point was 162 to 164 °C.
In the case of `CCN(CC)CCN1C(=O)Nc2cnccc2C1c1ccccc1` (stereo not given), the melting point is reported as 138 to 140 °C.
`Cc1noc(-c2ccc(C(=O)O)s2)n1` showed a melting point of 226 to 228 °C.
With `CCCCNC(=O)Oc1ccc(C(O)(CC)c2ccc(Cl)cc2)cc1` (stereo not given) the melting point was 78 to 79 °C.
`O=c1[nH]c(=Cc2ccc(OCc3ccccc3)cn2)c(=O)[nH]c1=Cc1cccc(Cl)c1` showed a melting point of 236 to 237 °C.
In the case of `O=C1c2ccccc2C(=O)N1COc1ccncc1`, the melting point is reported as 129 to 131 °C.
Work on `CC(=O)Nc1ccccc1C(=O)NC(=O)Nc1ccc(Oc2ncc(Br)cn2)c(C)c1` yielded a melting point of 186 to 191 °C.
`[N-]=[N+]=N[C@H]1C[C@H](C(=O)O)C1` showed a melting point of 39 to 41 °C.
`COc1ccc(C=O)c2cccnc12` showed a melting point of 121 to 122 °C.
For `CCOC(=O)c1cnc2n(c1=O)C(C)CC=C2N(C)c1ccccc1` (stereo not given), the melting point was 140 to 142 °C.
`CCOC(=O)C(CC)Oc1cccc(N2CCN(c3ccncc3)CC2)c1` (stereo not given) gave a melting point of 160 to 162 °C.
`CCCc1nccn1S(=O)(=O)c1c[nH]cn1` showed a melting point of 163 to 164 °C.
With `CN1CCCC1C1CCCN(CC(=O)N2c3ccccc3NC(=O)c3ccccc32)C1` (stereo not given) the melting point was 161 to 163 °C.
Compound `COCn1ncc2cc(-c3nnc(SCc4ccc(OC)c(C(F)(F)F)c4)o3)ccc21` has a melting point of 158 to 159 °C.
In the case of `COc1ccc2c(c1)c(CC(=O)OCCNC(=O)c1cccnc1)c(C)n2C(=O)c1ccc(Cl)cc1`, the melting point is reported as 123 to 125 °C.
In the case of `CCOC(=O)Cc1c(C2CCCCC2)nn(-c2ccccc2)c1-c1ccccc1`, the melting point is reported as 176 to 178 °C.
For `CCCc1nc2c(N)nc3cc(OCc4ccccc4C)ccc3c2n1CC(C)C`, the melting point was 228 °C.
With `CCN1C(=O)Cc2cc3ccccc3cc2S1(=O)=O` the melting point was 170 to 171 °C.
`O=C(Nc1nc2ccc(OCc3c(Cl)cccc3Cl)cc2[nH]1)C1CC1` gave a melting point of 133 to 135 °C.
`CCC(CC)(c1ccccc1F)c1c[nH]c2c(NS(C)(=O)=O)cccc12` showed a melting point of 144 to 146 °C.
Compound `O=C(OCc1ccccc1)c1cc(C(=O)OCc2ccccc2)n(CCBr)n1` has a melting point of 112 °C.
`CN(C)S(=O)(=O)c1cc([N+](=O)[O-])ccc1C(=O)O` showed a melting point of 160 to 163 °C.
`COc1cc(CC(=O)NCCCc2ccc(C)c(C)c2)ccc1OCCN(CCO)CCO` showed a melting point of 54 to 58 °C.
`O=C(O)Cc1cc(C(=O)c2c(F)cccc2F)ccc1O` gave a melting point of 120 °C.
Work on `CC(C)(C)[Si](C)(C)O[C@@H](CCCC(=O)N1C(=O)OC[C@@H]1Cc1ccccc1)c1ccc(F)cc1` yielded a melting point of 87.6 °C.
For `Cc1nc(-c2ccc3c(c2)COC(N[C@@H]2CCc4ccccc42)=N3)no1`, the melting point was 138 °C.
Compound `CC[C@H]1CN(c2ccc(-c3ccnc(Nc4cc(OC)c(OC)c(OC)c4)n3)cn2)CCN1` has a melting point of 82 to 83 °C.
`COc1cc(Nc2nccc(NC3CCCCC3)n2)cc(OC)c1OC` gave a melting point of 128 °C.
`[N-]=[N+]=NS(=O)(=O)c1cccc(C(=O)Cl)c1` showed a melting point of 41 °C.
With `O=C(Oc1cc(F)ccc1Br)c1cc2cc(CCl)ccc2oc1=O` the melting point was 203 to 205 °C.
For `Cc1nsc(OCC(Cl)(Cl)Cl)c1[N+](=O)[O-]`, the melting point was 60 to 61 °C.
Compound `CCOC(=O)c1c(C)nc(N2CCN(c3ccccc3)CC2)c2nccnc12` has a melting point of 85 to 87 °C.
Work on `NC(c1ccccc1CNc1ccnc2cc(Cl)ccc12)c1ccnc2cc(Cl)ccc12` (stereo not given) yielded a melting point of over 250 °C.
For `CCn1cc(-c2ccccc2)c(=O)c(-c2ccccc2)c1`, the melting point was 171 °C.
`CCC1(CC)c2cc(-c3cc4ccccc4[nH]3)ccc2-c2ccc(N(c3ccccc3)c3ccccc3)cc21` gave a melting point of 102 to 104 °C.
Work on `O=C(Nc1ccnnc1)Oc1ccccc1` yielded a melting point of 184 to 185 °C.
For `COc1cccc(C#CC#Cc2cc(C(F)(F)F)ccc2C(F)(F)F)c1`, the melting point was 37 °C.
Work on `CC(=O)NCP(=O)(O)O` yielded a melting point of 171 to 175 °C.
With `CCOC(=O)c1cnc2[nH]c(=O)ccc2c1Nc1ccc(OC)cc1` the melting point was 243 to 246 °C.
`Cc1cc(CCc2cc(O)c(=O)[nH]n2)ccc1C(F)(F)F` showed a melting point of 174 to 175 °C.
Compound `Cc1c(=O)n(Cc2ccc(C(=O)OC(C)(C)C)cc2)c(=O)n2ccsc12` has a melting point of 163 to 165 °C.
With `O=C1c2c(O)ccc(O)c2C(=O)c2c(NCCN3CCOCC3)ccc(NCCN3CCOCC3)c21` the melting point was 241 to 243 °C.
For `COC(=O)NC1CCC(Nc2ncc3c(N)cc(=O)n(CCCO)c3n2)CC1` (stereo not given), the melting point was 190 to 191 °C.
Work on `O=C(O)c1cc([N+](=O)[O-])ccc1NCc1ccccc1` yielded a melting point of 238 to 248 °C.
For `O=C(CBr)Nc1ccccc1`, the melting point was 131 to 135 °C.
Work on `CC12C=CC(=O)CC1CCC1C2CCC2(C)C(C(=O)NC3(C#N)CCCC3)CCC12` (stereo not given) yielded a melting point of 262 to 269 °C.
Compound `CCOC(=O)Cn1nnnc1Cl` has a melting point of 57 to 60 °C.
Compound `Cc1nccn1N=Cc1ccc(N(C)C)cc1` has a melting point of 166 to 167 °C.
Work on `COc1cccc(CC(=O)O)c1OCCCc1cn(-c2ncc(C(F)(F)F)cn2)nc1C(C)C` yielded a melting point of 131 to 132 °C.
Compound `O=C(O)CCCCCCCCCCCNC(=O)OCc1ccccc1` has a melting point of 84 to 85 °C.
`Cc1ccccc1-c1ccc(C(=O)N2Cc3ccc(C(=O)NC(C)CCc4ccccc4)n3Cc3ccccc32)cc1C` (stereo not given) showed a melting point of 152 to 154 °C.
For `NC(=O)N1CCCC(=O)c2ccc(Cl)cc2CCC1=O`, the melting point was 182 to 184 °C.
Work on `Cc1cc(OCC(O)CCl)c2cn[nH]c2c1` (stereo not given) yielded a melting point of 171 to 172 °C.
In the case of `O=S(=O)(O)c1ccc(N(Cc2ccc(F)cc2)Cc2ccc(Cl)cc2)cc1`, the melting point is reported as over 250 °C.
`COC1=C(OC)C(=O)C2=C(CC(CO)(CCCCCCCCO)C2)C1=O` showed a melting point of 59 to 61 °C.
Work on `CCNC(=O)Nc1nc2cc(-c3ccc(N(C)C)nc3)ccn2n1` yielded a melting point of 285 to 290 °C.
With `CC(C)CC(=O)O[C@H]1C[C@H](O)C=C2C=C[C@H](C)[C@H](CC[C@@H]3C[C@@H](O)CC(=O)O3)[C@H]21` the melting point was 153 to 155 °C.
For `COc1cc2cc(COC(C)=O)c(COC(C)=O)c(-c3ccncc3)c2cc1OC`, the melting point was 165 to 167 °C.
In the case of `Fc1ccc(Oc2ccnc3c(Cl)cccc23)c(Cl)c1`, the melting point is reported as 99 to 101 °C.
Compound `COC(=O)C1CCCn2c(=O)n(CCCl)c(=O)n21` (stereo not given) has a melting point of 94 to 95 °C.
Work on `CNC(=O)C(=NOC)C1=C(COc2ccccc2C)CC(C)=C(C)C1` yielded a melting point of 96 to 98 °C.
For `CC(C)(C)OC(=O)Nc1ccc(C#Cc2nccs2)cc1N`, the melting point was 182 °C.
Work on `CC1(C)COC(c2ccccc2-c2ccc(CCl)cc2)=N1` yielded a melting point of 72 to 75 °C.
Compound `CC(C)(C)NC(=O)c1ccc(S(=O)(=O)N2C(=O)C(C)(c3ccccc3Cl)c3cc(O)ccc32)cc1` (stereo not given) has a melting point of 262 °C.
`CN1CCN(CC2CCCCN2CC(=O)N2c3ccccc3NC(=O)c3ccccc32)CC1` (stereo not given) showed a melting point of 200 to 202 °C.
